Assay results reported in paper PMC8761912, “Cryptosporidium parvum Pyruvate Kinase Inhibitors With in vivo Anti-cryptosporidial Efficacy” (Frontiers in Microbiology, 2022).
Where two headings read alike, the source gives them in different places.

Columns and labels:
[1] = biological target: recombinant CpPyK (rCpPyK) protein (Cryptosporidium parvum, UniProt Q5CSM7); experiment: rCpPyK enzymatic activity inhibition assay (ATP detection, Cell Titer-Glo luminescence); type: biochemical
Protocol: The in vitro enzymatic activity of the rCpPyK protein was determined by quantitating the amount of ATP produced by the transfer of a phosphate group from phosphoenolpyruvate to adenosine diphosphate (ADP) in the presence of varying concentrations of the recombinant protein (Figure 1A). A typical assay contained 0.5 mM phosphoenolpyruvate, 0.6 mM ADP, 50 mM Tris buffer pH 7.5, 60 mM MgSO4, 100 mM KCl, and varying concentrations of rCpPyK incubated for 3 h at room temperature. The ATP generated was detected in a reaction volume of 50 μl in white opaque-walled 96 well plates by the luciferase-based Cell Titer-Glo 2.0 reagent (Promega) following the manufacturer’s instructions. The enzyme kinetics of rCpPyK were determined by using varying phosphoenolpyruvate (0–8 mM) and ADP (0–2 mM) concentrations in an enzymatic reaction catalyzed by a fixed concentration of the recombinant protein (6 ng/μl). In all assays, reaction mixtures without rCpPyK were included as negative controls. Three independent assays were performed for each experiment, and samples were run in triplicate. The luminescence generated was recorded using a multi-mode microplate reader (Spectra Max iD3; Molecular Devices, United States). GraphPad PRISM® v8 software was used to fit the Michaelis–Menten model directly to the substrate-velocity data to determine the enzymatic kinetic parameters for rCpPyK.
The Diversity Set VI chemical library (Supplementary Table 1) was obtained from the National Cancer Institute (NCI)/Developmental Therapeutics Program (DTP) Open Repository collection of chemical compounds.^1 Compounds were individually reconstituted in molecular biology grade dimethyl sulfoxide (DMSO) from Sigma-Aldrich and stored at −20°C. From the library, 1,424 compounds were screened in 96-well plates using the rCpPyK catalyzed enzyme assay to identify potential CpPyK inhibitors. The reactions were performed in 50 μl reaction volume containing 0.5 mM phosphoenolpyruvate, 0.6 mM ADP, 50 mM Tris buffer pH 7.5, 60 mM MgSO4, 100 mM KCl, and 6 ng/μl of rCpPyK protein with or without compound. The concentration of DMSO in all reaction mixtures was 1% (v/v). Control reactions without rCpPyK protein were included for background subtraction. Following 3 h of incubation at room temperature, an equal volume of the Cell Titer-Glo 2.0 reagent was added to each well, and the luminescence produced was recorded as relative luminescence units (RLU) after 10 min of incubation using a multi-mode microplate reader (Spectra Max iD3; Molecular Devices, United States). The mean percent inhibition (MPI) of rCpPyK activity by each compound was derived by dividing the difference in luminescence (RLU) between the compound-treated wells and the DMSO-treated wells by the luminescence of the DMSO-treated wells and multiplying the product by 100:
(1) MPI=[(MeanRLUDMSO-treated-MeanRLUCompound-treated)÷MeanRLUDMSO-treated]×100.
Half maximal inhibitory concentration (IC50) values were determined by applying a non-linear regression analysis curve fit to the mean dose-response data for varying concentrations of each compound using GraphPad PRISM® v8. Reactions were performed in triplicate and repeated at least thrice.

Solubility = type: physicochemical; conditions: DMSO
[2] = 6 ng/μl rCpPyK, 3 h at room temperature, read-out: Enzyme inhibition IC50

Sequence of recombinant CpPyK (rCpPyK) protein (Q5CSM7 entry or part of it): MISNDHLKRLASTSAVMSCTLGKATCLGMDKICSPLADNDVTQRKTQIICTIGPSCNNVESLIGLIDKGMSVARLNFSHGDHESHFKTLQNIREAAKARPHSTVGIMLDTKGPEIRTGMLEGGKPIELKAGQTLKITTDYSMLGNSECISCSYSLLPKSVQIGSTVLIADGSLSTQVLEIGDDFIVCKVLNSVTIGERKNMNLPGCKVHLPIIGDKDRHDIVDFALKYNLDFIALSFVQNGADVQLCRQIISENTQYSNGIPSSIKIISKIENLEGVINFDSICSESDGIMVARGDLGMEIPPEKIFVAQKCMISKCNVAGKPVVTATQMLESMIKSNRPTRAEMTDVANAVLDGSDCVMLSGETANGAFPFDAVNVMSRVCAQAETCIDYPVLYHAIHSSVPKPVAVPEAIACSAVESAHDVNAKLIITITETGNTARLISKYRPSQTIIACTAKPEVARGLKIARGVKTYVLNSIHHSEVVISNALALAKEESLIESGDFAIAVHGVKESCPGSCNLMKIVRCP

c1ccc(-c2nnc(-c3ccccn3)[nH]2)nc1 [NSC234945, 2-(3-pyridin-2-yl-1H-1,2,4-triazol-5-yl)pyridine]
IC50 [1]: 235 µM | solubility in DMSO (Solubility): high solubility in DMSO

CCOc1ccc(/C=C2\CCc3ccccc3C2=O)cc1 [NSC252172, (2E)-2-[(4-ethoxyphenyl)methylidene]-3,4-dihydronaphthalen-1-one]
IC50 [1, 2]: 123 µM

Cc1cc2c(c(C#N)c1C)NC=NC2C (centres unmarked) [NSC303244, 4,6,7-trimethyl-1,4-dihydroquinazoline-8-carbonitrile]
IC50 [1, 2]: 243 µM

N#C/C(=C\c1cc(O)c(O)c(O)c1)C(N)=O [NSC638080, (E)-2-cyano-3-(3,4,5-trihydroxyphenyl)prop-2-enamide]
IC50 [1, 2]: 97.1 µM
